In patent US12435068B2, “Anthelmintic compounds” (Elanco Animal Health GmBh, priority 2018, dated 2025):
Values after ≈ are worked out from the molar mass of the structure shown.

How the values were obtained:
[1] = tested on: Dirofilaria immitis microfilariae; experiment: In Vitro Assay 2: Dirofilaria immitis microfilariae (DIROIM L1) motility; format: cell-based; settings: 72 h, read-out: EC50 ppm
C. elegans Slo-1a = C. elegans Slo-1a (Caenorhabditis elegans, UniProt Q95V25)
Sequence of C. elegans Slo-1a (Q95V25 whole entry): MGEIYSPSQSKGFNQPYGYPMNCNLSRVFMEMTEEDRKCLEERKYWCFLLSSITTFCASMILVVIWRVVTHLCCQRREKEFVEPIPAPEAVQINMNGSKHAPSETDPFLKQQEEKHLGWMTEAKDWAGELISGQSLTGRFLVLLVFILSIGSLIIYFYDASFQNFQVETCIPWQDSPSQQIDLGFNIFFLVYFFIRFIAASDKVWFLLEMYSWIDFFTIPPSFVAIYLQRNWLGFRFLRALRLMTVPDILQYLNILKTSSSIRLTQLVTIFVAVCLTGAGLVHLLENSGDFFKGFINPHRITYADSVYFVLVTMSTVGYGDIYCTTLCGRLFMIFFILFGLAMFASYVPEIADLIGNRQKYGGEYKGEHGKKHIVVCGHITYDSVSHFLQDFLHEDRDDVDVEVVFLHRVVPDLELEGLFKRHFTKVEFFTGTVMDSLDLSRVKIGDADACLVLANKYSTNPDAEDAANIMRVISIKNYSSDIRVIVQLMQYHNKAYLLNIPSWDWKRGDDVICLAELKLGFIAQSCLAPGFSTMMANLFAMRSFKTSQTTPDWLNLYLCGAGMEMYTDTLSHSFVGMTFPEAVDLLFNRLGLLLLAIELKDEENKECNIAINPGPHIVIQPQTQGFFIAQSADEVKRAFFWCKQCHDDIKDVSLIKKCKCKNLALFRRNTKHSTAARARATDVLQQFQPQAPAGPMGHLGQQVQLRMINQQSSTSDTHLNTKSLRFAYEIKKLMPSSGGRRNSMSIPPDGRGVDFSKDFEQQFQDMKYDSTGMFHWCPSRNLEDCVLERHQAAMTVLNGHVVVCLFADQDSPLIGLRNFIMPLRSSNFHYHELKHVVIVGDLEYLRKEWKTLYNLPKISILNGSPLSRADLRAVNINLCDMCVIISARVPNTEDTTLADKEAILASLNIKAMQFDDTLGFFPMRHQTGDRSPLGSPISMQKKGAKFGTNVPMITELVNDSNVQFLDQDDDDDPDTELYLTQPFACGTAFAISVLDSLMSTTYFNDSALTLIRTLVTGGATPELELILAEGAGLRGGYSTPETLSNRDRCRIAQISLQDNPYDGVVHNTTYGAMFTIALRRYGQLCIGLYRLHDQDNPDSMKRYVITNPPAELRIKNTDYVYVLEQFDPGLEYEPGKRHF
Procedure: Cells were cultured at 37° C. and 5% CO2 in MEMalpha with Gutamax I (Invitrogen, Nr.: 32571), supplemented with 10% (v/v) heat inactivated fetal bovine serum (Invitrogen, Nr.: 10500), G418 (1 mg/ml, Invitrogen, Nr.: 10131). Cells were detached using Accutase (Sigma, Nr.: A6964).
Membrane Potential Measurements
Laboratory compound testing was performed on 384-well microtiter plates (MTPs, Greiner, Nr.: 781092). 8000 cells/well were plated onto 384-well MTPs and cultured for 20 to 24 hours at 37° C. and 5% CO2. After removal of the cell culture medium, the cells were washed once with tyrode (150 mM NaCl, 0.3 mM KCl, 2 mM CaCl2, 1 mM MgCl2, 0.8 mM NaH2PO4, 5 mM Glucose, 28 mM Hepes, pH 7.4) and then loaded with the voltage sensitive dye of the Membrane Potential Assay Kit diluted in tyrode for 1 h at room temperature.
After starting the measurement of fluorescence using a FLIPR Tetra (Molecular Devices, Exc. 510-545 nm, Emm. 565-625 nm), test compounds were added followed by the addition of KCl tyrode (final assay concentration: 70 mM KCl, 2 mM CaCl2, 1 mM MgCl2, 0.8 mM NaH2PO4, 5 mM Glucose, 28 mM Hepes, pH 7.4, including the voltage sensitive dye). The measurement was completed after 7 minutes.

Row | Structure (SMILES) | EC50 [1] | EC50 (C. elegans Slo-1a)
1 | O=C(N[C@H]1CCOc2ccccc21)c1sc2c(-c3cccc(Cl)c3Cl)ccc(F)c2c1N1CCOCC1 [Example Compound S1-17, 7-(2,3-Dichlorophenyl)-N-[(4S)-3,4-dihydro-2H-chromen-4-yl]-4-fluoro-3-(morpholin-4-yl)-1-benzothiophene-2-carboxamide] | 0.52 µg/mL (≈ 0.933 µM) | 50.1 nM
2 | O=C(N[C@H]1CCOc2ccccc21)c1c(N2CCOCC2)c2cccc(-c3cc(Cl)cc(Cl)c3)c2[nH]c1=O [Example Compound S8a-6, 8-(3,5-Dichlorophenyl)-N-[(4S)-3,4-dihydro-2H-chromen-4-yl]-4-(morpholin-4-yl)-2-oxo-1,2-dihydroquinoline-3-carboxamide] | 0.64 µg/mL (≈ 1.16 µM) | 39.8 nM
3 | CN(C)c1c(C(=O)N[C@H]2CCOc3ccccc32)sc2c(-c3cccc(Cl)c3Cl)nccc12 [Example Compound S1-13, 7-(2,3-Dichlorophenyl)-N-[(4S)-3,4-dihydro-2H-chromen-4-yl]-3-(dimethylamino)thieno[2,3-c]pyridine-2-carboxamide] | 0.08 µg/mL (≈ 0.161 µM) | 15.8 nM
4 | O=C(N[C@H]1CCOc2ccccc21)c1cc2cccc(-c3cccc(Cl)c3Cl)c2oc1=O [Example Compound S8a-3, 8-(2,3-Dichlorophenyl)-N-[(4S)-3,4-dihydro-2H-chromen-4-yl]-2-oxo-2H-chromene-3-carboxamide] | 0.25 µg/mL (≈ 0.536 µM) | 50.1 nM
5 | O=C(N[C@H]1CCOc2ccccc21)c1ccc2c(-c3cccc(Cl)c3Cl)nccc2c1 [Example Compound S6-2, 1-(2,3-Dichlorophenyl)-N-[(4S)-3,4-dihydro-2H-chromen-4-yl]isoquinoline-6-carboxamide] | > 2 µg/mL | 794 nM
6 | Cc1nn(-c2cc(Cl)cc(Cl)c2)c2ncc(C(=O)N[C@H]3CCOc4ccccc43)c(N(C)C)c12 [Example Compound S4-2, 1-(3,5-Dichlorophenyl)-N-[(4S)-3,4-dihydro-2H-chromen-4-yl]-4-(dimethylamino)-3-methyl-1H-pyrazolo[3,4-b]pyridine-5-carboxamide] | > 2 µg/mL | 2000 nM
7 | COc1c(C(=O)N[C@H]2CCOc3ccccc32)sc2c(-c3cc(Cl)cc(Cl)c3)cccc12 [Example Compound S1-9, 7-(3,5-Dichlorophenyl)-N-[(4S)-3,4-dihydro-2H-chromen-4-yl]-3-methoxy-1-benzothiophene-2-carboxamide] | 0.27 µg/mL (≈ 0.557 µM) | 251 nM
8 | CN(C)c1c(C(=O)N[C@H]2CCOc3ccccc32)sc2c(-c3ccc(F)c(F)c3)cccc12 [Example Compound S1-8, 7-(3,4-Difluorophenyl)-N-[(4S)-3,4-dihydro-2H-chromen-4-yl]-3-(dimethylamino)-1-benzothiophene-2-carboxamide] | 0.63 µg/mL (≈ 1.36 µM) | 3160 nM
9 | O=C(N[C@H]1CCOc2ccccc21)c1ccc2nc(-c3cccc(C(F)(F)F)c3Cl)cnc2c1 [Example Compound S9-1, 2-[2-Chloro-3-(trifluoromethyl)phenyl]-N-[(4S)-3,4-dihydro-2H-chromen-4-yl]quinoxaline-6-carboxamide] | 0.52 µg/mL (≈ 1.07 µM) | 20 nM
10 | CC(C)n1c(C(=O)N[C@H]2CCOc3ccccc32)cc2c(-c3cc(Cl)cc(Cl)c3Cl)cccc21 [Example Compound S2-4, N-[(4S)-3,4-Dihydro-2H-chromen-4-yl]-1-(propan-2-yl)-4-(2,3,5-trichlorophenyl)-1H-indole-2-carboxamide] | 0.02 µg/mL (≈ 0.0389 µM) | 15.8 nM
11 | CN(C)c1c(C(=O)N[C@H]2CCOc3ccccc32)cnc2c1n(C)c(=O)n2-c1cc(Cl)cc(Cl)c1 [Example Compound S5-1, 3-(3,5-Dichlorophenyl)-N-[(4S)-3,4-dihydro-2H-chromen-4-yl]-7-(dimethylamino)-1-methyl-2-oxo-2,3-dihydro-1H-imidazo[4,5-b]pyridine-6-carboxamide] | 0.38 µg/mL (≈ 0.742 µM) | 100 nM
12 | O=C(N[C@H]1CCOc2ccccc21)c1ccc2nc(-c3ccccc3Cl)cnc2c1 [Example Compound S9-2, 2-(2-Chlorophenyl)-N-[(4S)-3,4-dihydro-2H-chromen-4-yl]quinoxaline-6-carboxamide] | 1.95 µg/mL (≈ 4.69 µM) | 631 nM
13 | O=C(N[C@H]1CCc2ccccc21)c1ccc2nc(-c3ccccc3Cl)cnc2c1 [Example Compound S9-3, 2-(2-Chlorophenyl)-N-[(1S)-2,3-dihydro-1H-inden-1-yl]quinoxaline-6-carboxamide] | 0.61 µg/mL (≈ 1.53 µM) | 100 nM
14 | CC(C)n1c(C(=O)N[C@H]2CCOc3ccccc32)cc2c(-c3cc(Cl)cc(Cl)c3)cccc21 [Example Compound S2-5, 4-(3,5-Dichlorophenyl)-N-[(4S)-3,4-dihydro-2H-chromen-4-yl]-1-(propan-2-yl)-1H-indole-2-carboxamide] | 0.06 µg/mL (≈ 0.125 µM) | 25.1 nM
15 | COc1c(C(=O)N[C@H]2CCOc3ccccc32)sc2c(-c3cccc(Cl)c3)cccc12 [Example Compound S1-10, 7-(3-Chlorophenyl)-N-[(4S)-3,4-dihydro-2H-chromen-4-yl]-3-methoxy-1-benzothiophene-2-carboxamide] | 0.37 µg/mL (≈ 0.822 µM) | 398 nM
16 | Cn1c(C(=O)N[C@H]2CCc3ccccc32)nc2c(-c3cccc(Cl)c3Cl)ccnc21 [Example Compound S2-2, 7-(2,3-Dichlorophenyl)-N-[(1S)-2,3-dihydro-1H-inden-1-yl]-3-methyl-3H-imidazo[4,5-b]pyridine-2-carboxamide] | 0.37 µg/mL (≈ 0.846 µM) | 501 nM
17 | O=C(N[C@H]1CCc2ccccc21)c1ccc2nc(-c3cccc(Cl)c3Cl)cnc2c1 [Example Compound S9-5, 2-(2,3-Dichlorophenyl)-N-[(1S)-2,3-dihydro-1H-inden-1-yl]quinoxaline-6-carboxamide] | 0.37 µg/mL (≈ 0.852 µM) | 31.6 nM
18 | CC(C)c1c(C(=O)N[C@H]2CCc3ccccc32)ccc2c1nnn2-c1cccc(C(F)(F)F)c1 [Example Compound S4-9, N-[(1S)-2,3-Dihydro-1H-inden-1-yl]-4-(propan-2-yl)-1-[3-(trifluoromethyl)phenyl]-1H-benzotriazole-5-carboxamide] | > 2 µg/mL | 1580 nM
19 | CN(C)c1c(C(=O)N[C@H]2CCOc3ccccc32)ncc2c1ccc(=O)n2Cc1ccc(Cl)cc1 [Example Compound S7-2, 1-(4-Chlorobenzyl)-N-[(4S)-3,4-dihydro-2H-chromen-4-yl]-5-(dimethylamino)-2-oxo-1,2-dihydro 1,7-naphthyridine-6-carboxamide] | > 2 µg/mL | 1000 nM
20 | CC(C)c1c(C(=O)N[C@H]2CCOc3ccccc32)sc2c(-c3cc(Cl)cc(Cl)c3)cccc12 [Example Compound S1-1, 7-(3,5-Dichlorophenyl)-N-[(4S)-3,4-dihydro-2H-chromen-4-yl]-3-isopropyl-1-benzothiophene-2-carboxamide] | 0.08 µg/mL (≈ 0.161 µM) | 2.51 nM
21 | COc1c(C(=O)N[C@H]2CCOc3ccccc32)sc2c(-c3cccc(Cl)c3)nccc12 [Example Compound S1-15, 7-(3-Chlorophenyl)-N-[(4S)-3,4-dihydro-2H-chromen-4-yl]-3-methoxythieno[2,3-c]pyridine-2-carboxamide] | > 2 µg/mL | 794 nM
22 | CC(C)n1c(C(=O)N[C@H]2CCOc3ccccc32)cc2c(-c3cc(Cl)nc(Cl)c3)cccc21 [Example Compound S2-3, 4-(2,6-Dichloropyridin-4-yl)-N-[(4S)-3,4-dihydro-2H-chromen-4-yl]-1-(propan-2-yl)-1H-indole-2-carboxamide] | > 2 µg/mL | 100 nM
23 | CN(C)c1c(C(=O)N[C@H]2CCOc3ccccc32)cnc2c1cnn2-c1cc(Cl)cc(Cl)c1 [Example Compound S4-4, 1-(3,5-Dichlorophenyl)-N-[(4S)-3,4-dihydro-2H-chromen-4-yl]-4-(dimethylamino)-1H-pyrazolo[3,4-b]pyridine-5-carboxamide] | > 2 µg/mL | 501 nM
24 | CN(C)c1c(C(=O)N[C@H]2CCOc3ccccc32)sc2c(-c3cccc(Cl)c3)cccc12 [Example Compound S1-6, 7-(3-Chlorophenyl)-N-[(4S)-3,4-dihydro-2H-chromen-4-yl]-3-(dimethylamino)-1-benzothiophene-2-carboxamide] | 0.25 µg/mL (≈ 0.54 µM) | 31.6 nM
25 | COc1c(C(=O)N[C@H]2CCOc3ccccc32)sc2c(-c3cccc(Cl)c3Cl)nccc12 [Example Compound S1-16, 7-(2,3-Dichlorophenyl)-N-[(4S)-3,4-dihydro-2H-chromen-4-yl]-3-methoxythieno[2,3-c]pyridine-2-carboxamide] | 0.18 µg/mL (≈ 0.371 µM) | 25.1 nM
26 | CC(C)c1c(C(=O)N[C@H]2CCc3ccccc32)ccc2c1nnn2-c1ccc(Cl)cc1 [Example Compound S4-6, 1-(4-Chlorophenyl)-N-[(1S)-2,3-dihydro-1H-inden-1-yl]-4-(propan-2-yl)-1H-benzotriazole-5-carboxamide] | > 2 µg/mL | 251 nM
27 | O=C(N[C@H]1CCOc2ccccc21)c1cnc2c(ccc(=O)n2-c2cc(Cl)cc(Cl)c2)c1 [Example Compound S7-1, 8-(3,5-Dichlorophenyl)-N-[(4S)-3,4-dihydro-2H-chromen-4-yl]-7-oxo-7,8-dihydro-1,8-naphthyridine-3-carboxamide] | 1.95 µg/mL (≈ 4.18 µM) | 200 nM
28 | CC(C)c1c(C(=O)N[C@H]2CCOc3ccccc32)sc2c(-c3ccc(F)c(F)c3)cccc12 [Example Compound S1-4, 7-(3,4-Difluorophenyl)-N-[(4S)-3,4-dihydro-2H-chromen-4-yl]-3-isopropyl-1-benzothiophene-2-carboxamide] | 0.77 µg/mL (≈ 1.66 µM) | 50.1 nM
29 | CC(C)c1c(C(=O)N[C@H]2CCc3ccccc32)ccc2c1nnn2-c1cccc(Cl)c1 [Example Compound S4-8, 1-(3-Chlorophenyl)-N-[(1S)-2,3-dihydro-1H-inden-1-yl]-4-(propan-2-yl)-1H-benzotriazole-5-carboxamide] | > 2 µg/mL | 10000 nM
30 | O=C(N[C@H]1CCc2ccccc21)c1ccc2nc(-c3cccc(C(F)(F)F)c3Cl)cnc2c1 [Example Compound S9-6, 2-[2-Chloro-3-(trifluoromethyl)phenyl]-N-[(1S)-2,3-dihydro-1H-inden-1-yl]quinoxaline-6-carboxamide] | 0.44 µg/mL (≈ 0.94 µM) | 31.6 nM
